Earlier results as cited in patent publication US20120190646A1, “Compositions Comprising Thalidomide and Artemisinin for the Treatment of Cancer” (priority 2009, published 2012).

Conditions: multiple myeloma patients; thalidomide administered without prophylaxis; 'as high as'

VTE rates: ≤ 26%
SMILES: O=C1CCC(N2C(=O)c3ccccc3C2=O)C(=O)N1 (racemic) [thalidomide, 2-(2,6-dioxo-3-piperidinyl)-1H-isoindole-1,3(2H)-dione]
